From ChEMBL document CHEMBL1201862, “PubChem BioAssay data set” (2004) come the findings set out here.

Activity calls are given as the source filed them. Cut-off read from the data, not from the text of the source, for most assays here: actives have a measured IC50 and inactives only a lower limit.

For experiment [1], the target named is T1, Sentrin-specific protease 6 (Homo sapiens, UniProt Q9GZR1).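 Note: Luminescence-based dose-response confirmatory assay of SENP6 inhibition, following up an ultra-high-throughput screen.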
T1 sequence (Q9GZR1 whole entry): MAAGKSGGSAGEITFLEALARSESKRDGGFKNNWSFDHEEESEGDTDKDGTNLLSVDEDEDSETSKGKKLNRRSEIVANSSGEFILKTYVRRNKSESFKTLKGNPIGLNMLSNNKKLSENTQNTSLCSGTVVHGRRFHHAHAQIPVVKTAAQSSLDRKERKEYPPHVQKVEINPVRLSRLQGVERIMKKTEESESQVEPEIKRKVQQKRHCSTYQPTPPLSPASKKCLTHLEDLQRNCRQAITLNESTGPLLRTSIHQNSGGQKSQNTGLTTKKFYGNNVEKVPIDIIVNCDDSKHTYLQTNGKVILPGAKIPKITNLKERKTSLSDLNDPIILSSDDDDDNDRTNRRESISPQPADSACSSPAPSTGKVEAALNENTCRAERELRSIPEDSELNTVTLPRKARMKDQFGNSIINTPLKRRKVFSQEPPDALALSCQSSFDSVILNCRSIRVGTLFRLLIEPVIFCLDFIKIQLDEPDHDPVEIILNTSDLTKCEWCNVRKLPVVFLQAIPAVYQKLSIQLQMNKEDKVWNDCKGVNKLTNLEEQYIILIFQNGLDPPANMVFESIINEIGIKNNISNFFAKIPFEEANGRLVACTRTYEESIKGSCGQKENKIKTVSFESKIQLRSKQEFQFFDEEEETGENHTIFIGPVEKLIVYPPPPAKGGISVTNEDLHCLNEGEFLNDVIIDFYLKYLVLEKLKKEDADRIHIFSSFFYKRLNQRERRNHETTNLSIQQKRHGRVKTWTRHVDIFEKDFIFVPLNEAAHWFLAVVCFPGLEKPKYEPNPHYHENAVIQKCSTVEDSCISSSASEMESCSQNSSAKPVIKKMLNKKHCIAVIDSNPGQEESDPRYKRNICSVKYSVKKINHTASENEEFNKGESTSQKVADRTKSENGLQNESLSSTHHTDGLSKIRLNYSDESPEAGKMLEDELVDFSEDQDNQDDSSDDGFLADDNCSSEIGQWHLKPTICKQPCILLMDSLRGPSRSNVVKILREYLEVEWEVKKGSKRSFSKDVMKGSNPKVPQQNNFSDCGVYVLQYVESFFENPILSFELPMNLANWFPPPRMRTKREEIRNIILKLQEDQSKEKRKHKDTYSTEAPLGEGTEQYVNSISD
It counts as functional.

Experiment [2] concerns the target T2, Sentrin-specific protease 8 (Homo sapiens, UniProt Q96LD8).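 Note: luminescence read-out of SENP8 inhibition, dose-response confirmation following an ultra-high-throughput screen.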
T2 sequence (Q96LD8 whole entry): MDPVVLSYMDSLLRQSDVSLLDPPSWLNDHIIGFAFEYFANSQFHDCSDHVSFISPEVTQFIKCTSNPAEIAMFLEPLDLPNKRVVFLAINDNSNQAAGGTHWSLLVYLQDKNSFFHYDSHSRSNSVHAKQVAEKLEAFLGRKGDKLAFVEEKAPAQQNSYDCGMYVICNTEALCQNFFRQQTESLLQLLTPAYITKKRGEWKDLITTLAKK
It counts as functional.

For experiment [3], the target named is T3, Sentrin-specific protease 7 (Homo sapiens, UniProt Q9BQF6).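 Note: Luminescence-based dose-response confirmation of ultra-high-throughput screening hits, measuring inhibition of SENP7.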
T3 sequence (Q9BQF6 whole entry): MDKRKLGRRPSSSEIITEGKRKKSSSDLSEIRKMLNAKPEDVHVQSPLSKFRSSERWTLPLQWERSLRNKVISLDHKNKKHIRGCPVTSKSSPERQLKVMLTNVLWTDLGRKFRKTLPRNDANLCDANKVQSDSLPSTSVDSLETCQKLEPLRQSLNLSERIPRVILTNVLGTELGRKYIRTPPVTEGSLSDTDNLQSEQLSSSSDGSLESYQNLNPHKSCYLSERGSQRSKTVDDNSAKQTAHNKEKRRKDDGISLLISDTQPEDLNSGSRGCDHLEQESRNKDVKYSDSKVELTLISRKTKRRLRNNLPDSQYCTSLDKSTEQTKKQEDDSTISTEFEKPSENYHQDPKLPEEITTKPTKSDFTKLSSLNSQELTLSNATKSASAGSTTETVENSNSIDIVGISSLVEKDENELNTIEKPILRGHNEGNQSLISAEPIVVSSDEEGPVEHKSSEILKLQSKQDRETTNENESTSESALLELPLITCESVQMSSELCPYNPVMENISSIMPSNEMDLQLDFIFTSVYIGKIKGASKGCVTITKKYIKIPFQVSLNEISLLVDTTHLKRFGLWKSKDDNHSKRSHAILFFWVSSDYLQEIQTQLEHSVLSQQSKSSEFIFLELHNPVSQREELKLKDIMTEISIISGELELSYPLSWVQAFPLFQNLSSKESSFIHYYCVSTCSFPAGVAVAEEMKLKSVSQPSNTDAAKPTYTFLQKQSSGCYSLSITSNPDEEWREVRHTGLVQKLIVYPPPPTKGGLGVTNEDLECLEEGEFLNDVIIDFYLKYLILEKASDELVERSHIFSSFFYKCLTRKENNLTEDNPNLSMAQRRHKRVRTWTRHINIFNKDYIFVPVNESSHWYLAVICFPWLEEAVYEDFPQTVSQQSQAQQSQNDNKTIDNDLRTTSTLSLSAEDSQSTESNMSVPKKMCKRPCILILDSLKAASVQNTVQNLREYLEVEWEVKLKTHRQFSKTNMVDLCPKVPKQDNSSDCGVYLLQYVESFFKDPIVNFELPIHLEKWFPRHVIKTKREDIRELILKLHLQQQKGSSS
It counts as functional.

Another experiment addresses Nonstructural protein 1 (Influenza A virus, UniProt Q194T2). It is filed as functional, Influenza A virus (A/California/07/2009(H1N1)).

Nonstructural protein 1, sequence (Q194T2 whole entry): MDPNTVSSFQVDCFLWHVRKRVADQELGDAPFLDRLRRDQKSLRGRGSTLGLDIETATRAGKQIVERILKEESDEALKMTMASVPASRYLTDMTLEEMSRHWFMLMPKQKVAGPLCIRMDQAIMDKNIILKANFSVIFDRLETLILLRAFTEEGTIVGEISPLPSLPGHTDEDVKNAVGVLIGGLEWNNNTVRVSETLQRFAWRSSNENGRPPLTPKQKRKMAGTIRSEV

Take `NC(=O)C1CCN(C2=C(Cl)C(=O)c3ccccc3C2=O)CC1`: the IC50 is 5.84 µM (active) in experiment [1], 8.88 µM (active) in experiment [2] and 17.8 µM (active) in experiment [3].

With `O=C(O)c1ccc(N/N=C/c2ccc(OC(=O)c3ccccc3Cl)cc2)cc1`, the values for the IC50 in experiment [1], in experiment [2] and in experiment [3] were 2.16 µM (active), 2.05 µM (active) and 3.74 µM (active), respectively.

As for `COC(=O)c1ccccc1NC1=C/C(=N\S(=O)(=O)c2ccc(C(=O)O)cc2)c2ccccc2C1=O`, the IC50 on Nonstructural protein 1 is 31.8 µM (active).

A word on the IC50: it is the concentration needed to halve the response being measured.
